Test results: a compilation of properties of binary mixtures (doi:10.1016/j.fluid.2019.112304)

Assay: xn = mol fraction of the nth substance listed
Conditions: 101 kPa

CCCCCCCCCCCC[N+](C)(C)Cc1ccccc1.O=S(=O)([N-]S(=O)(=O)C(F)(F)F)C(F)(F)F + CCCCO
viscosity [mPa·s]
Conditions | x1 = 0.1507 | x1 = 0.3015 | x1 = 0.4494 | x1 = 0.594 | x1 = 0.7485 | x1 = 0.9164 | x1 = 1
298.15 K | 15.3 | 43.6 | 103 | 208 | 505 | 1066 | –
303.15 K | 12.4 | – | 78 | 153 | 362 | 748 | 970
308.15 K | 10.4 | – | 60.1 | 115 | 266 | 532 | –
313.15 K | 8.75 | 22 | 47.2 | 86.1 | – | 386 | 485
318.15 K | – | 18.1 | – | 69.1 | 150 | 285 | 351
323.15 K | 6.4 | 14.9 | 30.4 | 57.2 | 117 | 210 | 261
328.15 K | 5.54 | 12.5 | 24.9 | 46.8 | 91.6 | – | 197
333.15 K | – | 10.5 | – | – | 76.8 | 125 | 152
338.15 K | 4.24 | 8.87 | 17.2 | 33.8 | – | 99 | –
343.15 K | 3.75 | 7.58 | 14.6 | 29 | – | 79.2 | 91.8
348.15 K | 3.43 | 6.53 | 12.2 | – | 46.3 | 68 | 77.5

c1ccsc1 + N#C[C-](C#N)C#N.OCC[n+]1ccccc1
x2 = 0
Conditions | viscosity [mPa·s]
293.15 K | 0.653
298.15 K | 0.615
308.15 K | 0.545
313.15 K | 0.518
318.15 K | 0.491
323.15 K | 0.464
328.15 K | 0.441
338.15 K | 0.4
343.15 K | 0.382

CCCCO + CCCCCCCCCCCC[N+](C)(C)Cc1ccccc1.O=S(=O)([N-]S(=O)(=O)C(F)(F)F)C(F)(F)F
x2 = 0
Conditions | viscosity [mPa·s]
303.15 K | 2.23
318.15 K | 1.56
323.15 K | 1.42
328.15 K | 1.27
333.15 K | 1.11
338.15 K | 1.01

N#C[C-](C#N)C#N.OCC[n+]1ccccc1 + c1ccsc1
viscosity [mPa·s]
Conditions | x1 = 0.4042 | x1 = 0.4996 | x1 = 0.6 | x1 = 0.7041 | x1 = 0.8044 | x1 = 0.901 | x1 = 1
293.15 K | 19.9 | 29.5 | 40.2 | – | 67 | 91.2 | –
298.15 K | 16.3 | 23.6 | 31.8 | 41.2 | 51.6 | – | 97
303.15 K | 13.6 | – | 25.5 | 32.7 | 40.1 | – | 71.8
308.15 K | 11.5 | 15.8 | 20.7 | 26.1 | 31.6 | 39.6 | 54.6
313.15 K | 10 | 13.4 | 17.2 | 21.2 | 25.6 | 31.6 | 42.3
318.15 K | 8.78 | 11.4 | 14.4 | 17.7 | – | 25.7 | 34
323.15 K | 7.81 | 9.87 | – | 14.8 | 17.6 | 21.3 | 27.8
328.15 K | 7.01 | 8.67 | 10.6 | – | 14.8 | – | 22.9
333.15 K | 6.15 | – | – | 10.9 | 12.8 | 15.2 | 19.3
338.15 K | – | – | 7.86 | – | 11.1 | 13.1 | 16.4
343.15 K | 4.68 | – | 6.99 | 8.4 | – | 11.5 | 14
348.15 K | 4.17 | 5.12 | 6.2 | 7.5 | 8.89 | 10.3 | 12.3
